Source: patent US8258182B2, “Substituted 1,3-diphenylpropane derivatives, preparations and uses thereof” (Genfit, priority 2006, dated 2012)

Test system: PPARs target genes (PDK4, ApoCIII, ACO) in the hepatic tissue
Assay: Hepatic expression of PPAR target genes in E2/E2 mice (quantitative RT-PCR)
Type: in vivo, mouse
Details: 3 and 10 mpk
Protocol: The effectiveness of the compounds according to the invention is also evaluated by measuring, in the hepatic tissue, the expression of genes involved in lipid and/or glucids metabolism and in energy dissipation. Each level of genes expression is normalised regarding the expression level of the reference gene 36B4's. The induction factor, i.e. the ratio between the relative signal (induced by the compound according to the invention) and the average of the relative values relating to the control group is then calculated. The higher the induction factor is, the more the compound promotes hepatic gene expression. The final result is expressed as an average of the induction values obtained with each experimental group.
The PPARα agonist properties previously measured in vitro should, in the liver, lead to an overexpression of the target genes directly under the control of the PPARα: the genes we have studied in this experiment are PDK-4 (an enzyme involved in glucid metabolism), Apo CIII (an apolipoprotein involved in lipid metabolism), and Acox1 (in mice, Acox1 corresponds to the ACO gene in humans (Acyl Co-enzymeA Oxydase, an enzyme key to the fatty acid β-oxidation mechanism)). Measuring the transcriptional activity of PPARα target genes after a treatment with compounds according to the invention does therefore allow to evaluate the hypolipidemic properties of the compounds according to the invention.
The ApoE2/E2 transgenic mice were kept on a 12 hour/12 hour light/dark cycle at a constant temperature of 20±3° C. After a one week acclimatization period, the mice were weighed and divided into groups of 6 animals selected so as to render uniform the distribution of their body weights and plasma lipid rates, determined before the experiment. The tested compounds were suspended in carboxymethylcellulose (Sigma C4888) and administered by intra-gastric tube feeding once a day for 8 days (for compound 1) or 14 days (for compound 8) with the chosen doses. The animals had free access to food and water (standard diet). Taking of food and weight gain are recorded throughout the experiment. At the end of the experiment, the animals were anesthetized after a 4 hour fast, and a blood sample was taken using (EDTA) anticoagulant, then the mice were weighed and euthanized. The plasma was separated by centrifugation at 3000 rotations/minute for 20 minutes. The samples were kept at +4° C.
Liver samples were removed, frozen in liquid nitrogen, and kept at −80° C. for later analyses.
Total RNA is extracted from liver fragments by using the NucleoSpin® 96 RNA kit (Macherey Nagel, Hoerdt, France) according to the manufacturer's instructions.
1 μg of total RNA (quantified by using the Ribogreen RNA quantification kit (Molecular Probes)) is then reverse-transcripted into complementary DNA by means of a 1 hour reaction at 37° C. in a total volume of 20 μl containing a 1× buffer (Sigma), 1.5 mM of DTT, 0.18 mM of dNTPs (Promega), 200 ng of pdN6 (Amersham), 30U of RNase inhibitor (Sigma), and 1 μl of MMLV-RT (Sigma).
The PCR quantitative experiments were carried out using the MyiQ Single-Color Real-Time PCR Detection System (Biorad, Marnes-la-Coquette, France) and were performed using the iQ SYBR Green Supermix kit according to the manufacturer's recommendations, in 96-well trays in 5 μl of a diluted reverse transcription solution at a hybridation temperature of 55° C. The specific primer pairs of the genes studied were used: • PDK4: sense primer: 5′-[…]-3′ (SEQ ID NO: 1) and antisense primer 5′-[…]-3′ (SEQ ID NO: 2)) • ApoCIII: sense primer: 5′-[…]-3′ (SEQ ID NO: 3) and antisense primer 5′-[…]-3′ (SEQ ID NO: 4). • ACO: sense primer: 5′-[…]-3′ (SEQ ID NO: 5) and antisense primer: 5′-[…]-3′ (SEQ ID NO: 6)
The quantity of fluorescencet emitted is directly proportional to the quantity of cDNA present at the beginning of the reaction and amplified during the PCR. […]

SMILES: CCCOc1ccc(C(=O)CCc2cc(C)c(OC(C)(C)C(=O)O)c(C)c2)cc1 [Compound 8, 2-[2,6-dimethyl-4-[3-[4-(propyloxy)phenyl]-3-oxo-propyl]phenoxyl]-2-methylpropanoic acid]
- hepatic expression of the genes coding for PDK4 (14 days (FIG. 2-7)): significant augmentation
- hepatic expression of the genes coding for ApoCIII (14 days (FIG. 2-8)): reduction
- hepatic expression of the genes coding for ACO (14 days (FIG. 2-9)): significant augmentation
